These results are taken from paper PMC11791882.

The nature of the data set: on-resin side-chain lactamisation Lys(NH2)/Glu(COOH) after Pd(0)/PhSiH3 removal of Alloc/OAll; DIC 30 eq + OxymaPure 30 eq; ProTide resin 0.19 mmol/g, ca. 300 mL DCM, 2 days. The conditions noted are these: the molecule shown is the open-chain precursor, 57-membered ring, scale: % HPLC purity of cyclic product.

Turning to “Fmoc-Thr(tBu)-Lys(NH2)-Asn(Trt)-His(Trt)-Gln(Trt)-Gly-Leu-Gly-Arg(Pbf)-Gly-Asp(OtBu)-Gln(Trt)-Thr(tBu)-Thr(tBu)-Pro-Ala-Gln(Trt)-Glu(COOH)-Ala-Gln(Trt)-Thr(tBu)-Gly-Trp(Boc)-Val-Gln(Trt)-Asn(Trt)-NH-ProTide resin”, the ring closure, conversion by HPLC (48.0 h) was found to be 80.8.

As to “Fmoc-Thr(tBu)-Lys(NH2)-Asn(Trt)-His(Trt)-Gln(Trt)-Gly-Pro-Gly-Arg(Pbf)-Gly-Asp(OtBu)-Gln(Trt)-Thr(tBu)-Thr(tBu)-Leu-Ala-Gln(Trt)-Glu(COOH)-Ala-Gln(Trt)-Thr(tBu)-Gly-Trp(Boc)-Val-Gln(Trt)-Asn(Trt)-NH-ProTide resin”, the ring closure, conversion by HPLC (168.0 h) is 0.

Regarding “Fmoc-Thr(tBu)-Lys(NH2)-Asn(Trt)-His(Trt)-Gln(Trt)-Gly-Pro-Gly-Arg(Pbf)-Gly-Asp(OtBu)-Gln(Trt)-Thr(tBu)-Thr(tBu)-Pro-Ala-Gln(Trt)-Glu(COOH)-Ala-Gln(Trt)-Thr(tBu)-Gly-Trp(Boc)-Val-Gln(Trt)-Asn(Trt)-NH-ProTide resin”, the ring closure, conversion by HPLC (48.0 h) came to 88.6.

In the case of “Fmoc-Thr(tBu)-Lys(NH2)-Asn(Trt)-His(Trt)-Gln(Trt)-Ser(tBu)-Ala-Gln(Trt)-Arg(Pbf)-Gly-Asp(OtBu)-Leu-Thr(tBu)-Thr(tBu)-Pro-Ala-Gln(Trt)-Glu(COOH)-Ala-Gln(Trt)-Thr(tBu)-Gly-Trp(Boc)-Val-Gln(Trt)-Asn(Trt)-NH-ProTide resin”, the ring closure, conversion by HPLC (48.0 h) is 73.9.
